Test results from patent US8114602B2 (priority 2003, dated 2012).
Values joined by “and” are separate entries in the source; they are usually repeats but may differ in a detail not shown here. Equal values may be shown once. “Also recorded” adds a separate entry of the source.

Columns and labels:
[1] = test system: membranes free of GM1 and GTIB; type: binding
GM1 [2] = type: binding, bovine; design: Ei (effective interaction energy): unit not given here
GM1 [3] = type: binding, bovine; conditions: read-out: effective dissociation constant
GTIB [4] = type: binding, bovine
GTIB [5] = type: binding, bovine; conditions: read-out: effective dissociation constant

Row | Substance | Ei (effective interaction energy) [1] | detection signal / binding in selectivity series [1] | Ei (effective interaction energy) (GM1 [2]) | colloidal phase response (condensed to dispersed transition) (GM1 [2]) | detection signal / binding in selectivity series (GM1 [2]) | first peak in the g(r) plot (GM1 [2]) | Kd (GM1 [3]) | Ei (effective interaction energy) (GTIB [4]) | colloidal phase response (condensed to dispersed transition) (GTIB [4]) | Kd (GTIB [5]) | detection signal / binding in selectivity series (GTIB [4]) | first peak in the g(r) plot (GTIB [4])
1 | Cholera Toxin B-subunit [CTB] | 2.52 ± 0.09 | Negative signals; also recorded: absence of binding | 0.56 ± 0.12 | triggered the transition to a dispersed phase; also recorded: induces the transition | positive signal; also recorded: detected binding | noticeably absent | ~41 nM and ~60 nM | 2.47 ± 0.09 | without producing any effect; also recorded: no effect | – | – | –
2 | tetanus toxin [TT] | 2.61 ± 0.05 | Negative signals | 2.63 ± 0.05 | no effect | Negative signals | – | – | – | triggered formation of a dispersed phase; also recorded: induces a condensed to dispersed phase transition | ~60 nM and ~41 nM | positive signal; also recorded: detected binding | noticeably absent
3 | α-Bungarotoxin [BT] | 2.67 ± 0.10 | Negative signals | 2.84 ± 0.02 | no effect | – | – | – | 2.71 ± 0.08 | no effect | – | – | –
